Test results reported in patent publication US6699656B2, “Treatment and prevention of HIV infection by administration of derivatives of human chorionic gonadotropin” (University of Maryland Biotechnology Institute, priority 1996, dated 2004).
Bridges are numbered along the chain shown (N, C = ends). Where no end group is shown, it is not given here.

Columns and labels:
KS Y-1 tumors = KS Y-1 tumors induced in immunodeficient mice; type: in vivo; settings: treatment from one week after tumor cell injection; peptides 10 μg daily 5 days, hCG APL 100 IU s.c. daily 7 days
Description: The effects of the peptides on KS tumor cells were also evaluated in vivo in the mouse model. To induce KS tumors in the mice, 1×10^6/ml KS Y-1 cells in 50 μl PBS or saline were injected subcutaneously into immunodeficient mice (beige-XID-BNX mice). […] Methods for detection of apoptosis (from tissue biopsies) were used, as described in Lunardi-Iskandar, Y. et al.(1995, Nature 375:64-68). Briefly, the samples were stained in situ for the presence of cells with DNA fragmentation. Tissue slides from formalin-fixed tumors were treated with terminal deoxynucleotide transferase for extension of DNA ends (hydroxyl 3′) and incorporation of digoxigenin-11-dUTP according to the manufacturer's instructions (Oncor, Gaithersburg, Md.). Anti-digoxigenin antibody conjugated with the enzyme peroxidase allowed detection of apoptotic cells that stain brown whereas viable cells stain blue.

[1] = system: hematopoietic progenitor cells; experiment: Hematopoietic progenitor colony assays (CFU-MIX, BFU-e, CFU-GM); type: cell-based; settings: bone marrow and cord blood; hCG 200 IU/ml, peptides and subunits 100 μg/ml; 10 days
Source text: Hematopoietic progenitor cells (2×10^5 cell/ml) were isolated from normal bone marrow and cord blood and seeded in methylcellulose. […] Aggregates containing more than 50 cells after 10 days of culture were counted as colonies.

HIV-1 [2] = settings: p24 antigen days 3 to 10; peptides 0.05 to 50 nmoles/ml, hCG 0.01 to 1,000 IU, native β-hCG 100 to 1,000 μg
Description: Sequences of the peptides are as follows:
HIV-1 infected cells were treated with the above preparations and the virus was measured.

Kaposi's Sarcoma = settings: literature; cited from earlier work
KS Y-1 or KS-SLK cells = experiment: KS clonogenic assay; type: cell-based, human; settings: 2 KS cell lines; peptides 50 nmoles/ml, CR127 2 nmoles/ml; 10 days
Description: Briefly, the KS Y-1 cells were obtained from mononuclear cells isolated from pleural effusion of an AIDS patient with KS involving the lungs. After the depletion of T lymphocytes, monocytes/macrophages and fibroblasts by the cytotoxicity method, using monoclonal antibodies against CD2, CD3, CD4, CD8, CD10 and CD14 membrane antigens and baby rabbit complement, the cells were cultured in the absence of exogenous growth factors to select for transformed cells.

HIV-1 [3] = system: HIV-1
HIV-1 transgenic mice = type: in vivo

| Compound | effect on KS Y-1 tumors in mice (cell death, thin sections) (KS Y-1 tumors) | growth of hematopoietic progenitors (colonies) [1] | inhibition of HIV-1 infection/replication in acutely infected cells (HIV-1 [2]) | anti-KS effect in clonogenic assays (number of colonies) (KS Y-1 or KS-SLK cells) | further results |
| --- | --- | --- | --- | --- | --- |
| β-hCG peptide 6-40: β-hCG peptide 6-40, forms the β-core (RPRCRPINATLAVEKEGCPVCITVNTTICAGYCPT; UniProt P0DN86 26-60, looked up, fragment) | slight activity |  |  |  |  |
| TCDDPRFQDSS [β-hCG peptide 109-119] |  | directly promoted | active | strongest anti-tumor effects | efficacy in the treatment of Kaposi's Sarcoma (Kaposi's Sarcoma): efficacious |
| β-hCG peptide 100-110: β-hCG peptide of amino acids 100-110 (CGGPKDHPLTC; UniProt P0DN86 120-130, looked up, fragment) | inactive | little or no effects |  | little or no inhibition |  |
| LQGVLPALPQVVC [β-hCG peptide 45-57] | extensive cell death | directly promoted | most active | strongest anti-tumor effects |  |
| β-hCG peptide 109-145: β-hCG carboxy-terminal peptide of amino acids 109-145 (TCDDPRFQDSSSSKAPPPSLPSPSRLPGPSDTPILPQ) |  |  |  |  | efficacy in the treatment of Kaposi's Sarcoma (Kaposi's Sarcoma): efficacious |
| β-hCG peptide 57-93: β-hCG peptide of amino acids 57-93 (CNYRDVRFESIRLPGCPRGVNPVVSYAVALSCQCALC; UniProt P0DN86 77-113, looked up, fragment) | inactive | little or no effects |  | little or no inhibition |  |
| β-hCG peptide 6-16: β-hCG peptide of amino acids 6-16 (RPRCRPINATL; UniProt P0DN86 26-36, looked up, fragment) | inactive | little or no effects | little or no effect | little or no inhibition |  |
| α-hCG peptide 88-92: α-hCG peptide of amino acids 88-92 (YYHKS; UniProt P01215 112-116, looked up, fragment) | inactive | little or no effects | little or no effect | little or no inhibition |  |
| CC(C)(C)NC(=O)[C@@H]1CN(Cc2cccnc2)CCN1C[C@@H](O)C[C@@H](Cc1ccccc1)C(=O)N[C@H]1c2ccccc2C[C@H]1O [indinavir (Crixivan)] |  |  |  |  | viral load, patient PH-JPV (HIV-1 [3]; indinavir added after hCG induced pulmonary response): undetectable viral load |
| β-hCG peptide 134-144: β-hCG peptide of amino acids 134-144 | inactive | little or no effects |  |  |  |
| Leu Gln Dab(Pro) Val Leu Pro Dab(Pro) Leu Pro Gln Val Val Cys [branched β-hCG 45-57] |  |  |  |  | hyperkeratosis of the skin / histology (HIV-1 transgenic mice; HIV-1 transgenic mice): normal histology; growth retardation and cachexia (HIV-1 transgenic mice; HIV-1 transgenic mice, branched peptide 10 μg to mothers s.c. daily for 10 days): reversal; survival (HIV-1 transgenic mice; all untreated mice died within 10 days, 10 μg to mothers s.c. daily for 10 days): survived; gp120 and nef protein by antibody staining (HIV-1 transgenic mice; pups, 10 μg to mothers s.c. daily for 10 days): down regulation |
| β-hCG peptide 55-90: β-hCG peptide 55-90, forms the β-core (VVCNYRDVRFESIRLPGCPRGVNPVVSYAVALSCQC; UniProt P0DN86 75-110, looked up, fragment) | slight activity |  |  |  |  |
| β-hCG peptide 7-40: β-hCG peptide of amino acids 7-40 (PRCRPINATLAVEKEGCPVCITVNTTICAGYCPT; UniProt P0DN86 27-60, looked up, fragment) |  | little or no effects |  | little or no inhibition |  |
| β-hCG peptide 123-145: β-hCG peptide of amino acids 123-145 | inactive | little or no effects |  |  |  |
| β-hCG peptide 74-95: β-hCG peptide of amino acids 74-95 (RGVNPVVSYAVALSCQCALCRR; UniProt P0DN86 94-115, looked up, fragment) | inactive | little or no effects | little or no effect | little or no inhibition |  |
| Cys Leu Gln Gly Val Leu Pro Ala Leu Pro Gln Val Val Cys (CLQGVLPALPQVVC; disulfide 1-14 (inferred)) [Satellin A2 peptide] | extensive cell death | directly promoted | most active | strongest anti-tumor effects |  |
| β-hCG peptide 38-57: β-hCG peptide of amino acids 38-57, overlaps satellin A1 (CPTMTRVLQGVLPALPQVVC; UniProt P0DN86 58-77, looked up, fragment) | slight activity | little or no effects |  | little or no inhibition |  |
| β-hCG peptide 34-49: β-hCG peptide of amino acids 34-49 (CAGYCPTMTRVLQGVL; UniProt P0DN86 54-69, looked up, fragment) | inactive | little or no effects |  | little or no inhibition |  |
| CC(C)c1nc(CN(C)C(=O)N[C@H](C(=O)N[C@@H](Cc2ccccc2)C[C@H](O)[C@H](Cc2ccccc2)NC(=O)OCc2cncs2)C(C)C)cs1 [Ritonavir] |  |  |  |  | CD4+ T cells, patient PH-SPBE (HIV-1 [3]; Ritonavir added at 22 weeks to ongoing hCG treatment): over 300 mm^3 |
| β-hCG peptide 93-100: β-hCG peptide of amino acids 93-100 (CRRSTTDC; UniProt P0DN86 113-120, looked up, fragment) | inactive |  |  |  |  |
